{"source": "patent US11505523B2", "about": "“HDAC8 inhibitors for treating cancer” (City of Hope, priority 2013, dated 2022)", "key": {"MOLM13 cells": {"tested_on": "MOLM13 cells", "test": "Proliferation of MOLM13 cells, luminescent cell viability assay", "format": "cell-based, human", "conditions": "48-hr, luminescent cell viability assay; read-out: MOLM13 Proliferation IC50"}, "normal CD34^+ cells": {"tested_on": "normal CD34^+ cells", "test": "Apoptosis/cytotoxicity in normal CD34+ cells", "source_text": "Given that the frequency of TP53 mutation is relatively low in AML, altered post-translational modification by HDAC8 could represent an alternative p53-inactivating mechanism and contribute to drug resistance of AML stem cells. We first examined the expression of HDAC8 in CD34^+ stem and progenitor cells isolated from patients with inv(16)^+ AML compared to normal mobilized peripheral blood stem cells (PBSC)."}, "[1]": {"tested_on": "normal HSCs (CB CD34^+ cells)", "test": "Engraftment of normal CB CD34+ cells treated ex vivo into NSG mice", "conditions": "10 μM 48 h ex vivo, 16 weeks", "source_text": "FIGS. 18A-18F. […] Shown are engraftment levels of each population (CD45+, CD34+, CD33+, CD14+, CD15+) in the bone marrow and spleen weight at 16 weeks after transplantation. […] FIGS. 18A-18F (in order): CD45+, CD34+, CD33+, CD14+, CD15+, and spleen.\nAML is maintained by LSCs that are relatively resistant to chemotherapy and can persist as potential sources of relapse. Even though AML with CBF translocations are considered to have favorable prognosis, the incidence of relapse is still 25-58% with chemotherapy."}}, "note": "“Also recorded” adds a separate entry of the source.", "data": [{"smiles": "COc1ccc(/C=C/C(=O)NO)c(-c2ccc(-c3ccccc3)cc2)c1", "note": "[Compound 22d, (E)-N-Hydroxy-4-methoxy-2-(biphenyl-4-yl)cinnamide]", "values": [{"measurement": "IC50", "setting": "MOLM13 cells", "value": 2.42, "unit": "µM"}, {"measurement": "difference between CD34+ cells from PBSC and CB", "setting": "normal CD34^+ cells; based on cell origin", "value": "no significant difference"}, {"measurement": "cytotoxicity in normal CD34+ cells", "setting": "normal CD34^+ cells; higher dose (40 μM), 48 h", "value": "Modest cytotoxicity"}, {"measurement": "engraftment activity of normal HSCs", "setting": "[1]", "value": "does not affect normal HSC engraftment; also recorded: no impact on short-term or long-term engraftment activity"}]}]}
